What was measured:
[1] = biological target: GDP-bound NRAS wild-type protein (Homo sapiens, UniProt P01111); assay: Binding to NRAS by surface plasmon resonance (SPR), Single Cycle Kinetics; details: SPR, GDP-bound NRAS wild-type protein vs GDP-bound KRAS wild-type protein
[2] = biological target: GDP-bound HRAS wild-type protein (Homo sapiens, UniProt P01112); assay: Binding to HRAS by surface plasmon resonance (SPR), Single Cycle Kinetics; details: SPR, GDP-bound HRAS wild-type protein vs GDP-bound KRAS wild-type protein
[3] = biological target: GDP-bound KRAS wild-type protein (Homo sapiens, UniProt P01116); assay: Binding to KRAS by surface plasmon resonance (SPR), Single Cycle Kinetics; details: SPR, Single Cycle Kinetics, GDP-bound KRAS wild-type protein; read-out: KRAS KD
GDP-bound KRAS wild-type protein, sequence (P01116 whole entry): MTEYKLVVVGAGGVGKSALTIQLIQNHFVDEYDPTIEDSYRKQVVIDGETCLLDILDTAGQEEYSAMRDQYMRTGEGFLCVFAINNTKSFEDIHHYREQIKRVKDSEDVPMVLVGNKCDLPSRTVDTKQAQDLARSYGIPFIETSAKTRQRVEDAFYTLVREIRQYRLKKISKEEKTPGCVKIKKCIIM

GDP-bound NRAS wild-type protein, sequence (P01111 whole entry): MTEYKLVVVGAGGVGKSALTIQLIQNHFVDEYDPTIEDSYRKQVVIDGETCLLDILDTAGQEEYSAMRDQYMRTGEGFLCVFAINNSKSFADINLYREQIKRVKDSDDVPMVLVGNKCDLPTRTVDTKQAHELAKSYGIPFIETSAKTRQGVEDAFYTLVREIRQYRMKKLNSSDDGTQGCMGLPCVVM
GDP-bound HRAS wild-type protein, sequence (P01112 whole entry): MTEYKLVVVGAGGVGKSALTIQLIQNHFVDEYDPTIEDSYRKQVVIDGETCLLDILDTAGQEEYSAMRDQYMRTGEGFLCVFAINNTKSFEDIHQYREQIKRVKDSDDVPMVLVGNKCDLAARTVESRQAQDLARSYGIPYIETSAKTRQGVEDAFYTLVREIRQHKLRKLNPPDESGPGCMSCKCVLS

Kd [3] [nM]	Compound	NRAS/KRAS (ratio of KD value for NRAS to KD value for KRAS) [1]	HRAS/KRAS (ratio of KD value for HRAS to KD value for KRAS) [2]
0.072	CCO[C@@H]1C[C@H]2C(=O)NC3(CCC3)C(=O)N(C)[C@@H](C3CCCC3)C(=O)N(C)[C@H](C(=O)N(C)C)CC(=O)N(C)[C@@H](Cc3cccs3)C(=O)N[C@@H]([C@@H](C)CC)C(=O)N(C)CC(=O)N(C)[C@H]3C/C=C\CCN(C3=O)[C@@H](Cc3ccc(C(F)(F)F)cc3)C(=O)N(C)CC(=O)N[C@@H](CCc3cc(F)c(C(F)(F)F)c(F)c3)C(=O)N2C1 [PP1123, (2S,8S,12R,14S,20S,23S,27S,30S,36S,38Z)-20-cyclopentyl-8-[2-[3,5-difluoro-4-(trifluoromethyl)phenyl]ethyl]-12-ethoxy-N,N,4,19,22,26,32,35-octamethyl-30-[(1S)-1-methylpropyl]-3,6,9,15,18,21,25,28,31,34,42-undecaoxo-27-(2-thienylmethyl)-2-[[4-(trifluoromethyl)phenyl]methyl]spiro[1,4,7,10,16,19,22,26,29,32,35-undecazatricyclo[34.5.1.0^10,14]dotetracont-38-ene-17,1′-cyclobutane]-23-carboxamide]	A (a compound having 10 or more and less than 20 is denoted as A)	B (a compound having 3 or more and less than 10 is denoted as B)
0.056	CCO[C@@H]1C[C@H]2C(=O)NC3(CCC3)C(=O)N(C)[C@@H](C3CCCC3)C(=O)N(C)[C@H](C(=O)N(C)C)CC(=O)N(C)[C@@H](CC(F)(F)F)C(=O)N[C@@H]([C@@H](C)CC)C(=O)N(C)CC(=O)N(C)[C@H]3C/C=C\CCN(C3=O)[C@@H](Cc3ccc(C(F)(F)F)cc3)C(=O)N(C)CC(=O)N[C@@H](CCc3cc(F)c(C(F)(F)F)c(F)c3)C(=O)N2C1 [PP1124, (2S,8S,12R,14S,20S,23S,27S,30S,36S,38Z)-20-cyclopentyl-8-[2-[3,5-difluoro-4-(trifluoromethyl)phenyl]ethyl]-12-ethoxy-N,N,4,19,22,26,32,35-octamethyl-30-[(1S)-1-methylpropyl]-3,6,9,15,18,21,25,28,31,34,42-undecaoxo-27-(2,2,2-trifluoroethyl)-2-[[4-(trifluoromethyl)phenyl]methyl]spiro[1,4,7,10,16,19,22,26,29,32,35-undecazatricyclo[34.5.1.0^10,14]dotetracont-38-ene-17,1′-cyclobutane]-23-carboxamide]	A (a compound having 10 or more and less than 20 is denoted as A)	B (a compound having 3 or more and less than 10 is denoted as B)
0.07	CCO[C@@H]1C[C@H]2C(=O)NC3(CCC3)C(=O)N(C)[C@@H](C3CCCC3)C(=O)N(C)[C@H](C(=O)N(C)C)CC(=O)N(C)[C@@H](CC3CCCCC3)C(=O)N[C@@H]([C@@H](C)CC)C(=O)N(C)CC(=O)N(C)[C@H]3C/C=C\CCN(C3=O)[C@@H](Cc3ccc(C(F)(F)F)cc3)C(=O)N(C)CC(=O)N[C@@H](CCc3cc(F)c(C(F)(F)F)c(F)c3)C(=O)N2C1 [PP1125, (2S,8S,12R,14S,20S,23S,27S,30S,36S,38Z)-27-(cyclohexylmethyl)-20-cyclopentyl-8-[2-[3,5-difluoro-4-(trifluoromethyl)phenyl]ethyl]-12-ethoxy-N,N,4,19,22,26,32,35-octamethyl-30-[(1S)-1-methylpropyl]-3,6,9,15,18,21,25,28,31,34,42-undecaoxo-2-[[4-(trifluoromethyl)phenyl]methyl]spiro[1,4,7,10,16,19,22,26,29,32,35-undecazatricyclo[34.5.1.0^10,14]dotetracont-38-ene-17,1′-cyclobutane]-23-carboxamide]	A (a compound having 10 or more and less than 20 is denoted as A)	A (a compound having 10 or more and less than 20 is denoted as A)
0.089	CCO[C@@H]1C[C@H]2C(=O)NC3(CCC3)C(=O)N(C)[C@@H](C3CCCC3)C(=O)N(C)[C@H](C(=O)N(C)C)CC(=O)N(C)[C@@H](Cc3cccc(F)c3)C(=O)N[C@@H]([C@@H](C)CC)C(=O)N(C)CC(=O)N(C)[C@H]3C/C=C\CCN(C3=O)[C@@H](Cc3ccc(C(F)(F)F)cc3)C(=O)N(C)CC(=O)N[C@@H](CCc3cc(F)c(C(F)(F)F)c(F)c3)C(=O)N2C1 [PP1126, (2S,8S,12R,14S,20S,23S,27S,30S,36S,38Z)-20-cyclopentyl-8-[2-[3,5-difluoro-4-(trifluoromethyl)phenyl]ethyl]-12-ethoxy-27-[(3-fluorophenyl)methyl]-N,N,4,19,22,26,32,35-octamethyl-30-[(1S)-1-methylpropyl]-3,6,9,15,18,21,25,28,31,34,42-undecaoxo-2-[[4-(trifluoromethyl)phenyl]methyl]spiro[1,4,7,10,16,19,22,26,29,32,35-undecazatricyclo[34.5.1.0^10,14]dotetracont-38-ene-17,1′-cyclobutane]-23-carboxamide]	A (a compound having 10 or more and less than 20 is denoted as A)	A (a compound having 10 or more and less than 20 is denoted as A)
0.11	CCO[C@@H]1C[C@H]2C(=O)NC3(CCC3)C(=O)N(C)[C@@H](C3CCCC3)C(=O)N(C)[C@H](C(=O)N(C)C)CC(=O)N(C)[C@@H](Cc3cccc(Cl)c3)C(=O)N[C@@H]([C@@H](C)CC)C(=O)N(C)CC(=O)N(C)[C@H]3C/C=C\CCN(C3=O)[C@@H](Cc3ccc(C(F)(F)F)cc3)C(=O)N(C)CC(=O)N[C@@H](CCc3cc(F)c(C(F)(F)F)c(F)c3)C(=O)N2C1 [PP1127, (2S,8S,12R,14S,20S,23S,27S,30S,36S,38Z)-27-[(3-chlorophenyl)methyl]-20-cyclopentyl-8-[2-[3,5-difluoro-4-(trifluoromethyl)phenyl]ethyl]-12-ethoxy-N,N,4,19,22,26,32,35-octamethyl-30-[(1S)-1-methylpropyl]-3,6,9,15,18,21,25,28,31,34,42-undecaoxo-2-[[4-(trifluoromethyl)phenyl]methyl]spiro[1,4,7,10,16,19,22,26,29,32,35-undecazatricyclo[34.5.1.0^10,14]dotetracont-38-ene-17,1′-cyclobutane]-23-carboxamide]	AA (a compound having 20 or more is denoted as AA)	A (a compound having 10 or more and less than 20 is denoted as A)
0.12	CC[C@H](C)[C@@H]1NC(=O)[C@H](CC)N(C)C(=O)C[C@@H](C(=O)N(C)C)N(C)C(=O)[C@H](C2CCCC2)N(C)C(=O)C2(CCC2)NC(=O)[C@@H]2C[C@H](OC)CN2C(=O)[C@H](CCc2cc(F)c(C(F)(F)F)c(F)c2)NC(=O)CN(C)C(=O)[C@H](Cc2ccc(C(F)(F)F)cc2)N2CC/C=C\C[C@@H](C2=O)N(C)C(=O)CN(C)C1=O [PP1128, (2S,8S,12S,14S,20S,23S,27S,30S,36S,38Z)-20-cyclopentyl-8-[2-[3,5-difluoro-4-(trifluoromethyl)phenyl]ethyl]-27-ethyl-12-methoxy-N,N,4,19,22,26,32,35-octamethyl-30-[(1S)-1-methylpropyl]-3,6,9,15,18,21,25,28,31,34,42-undecaoxo-2-[[4-(trifluoromethyl)phenyl]methyl]spiro[1,4,7,10,16,19,22,26,29,32,35-undecazatricyclo[34.5.1.0^10,14]dotetracont-38-ene-17,1′-cyclobutane]-23-carboxamide]	AA (a compound having 20 or more is denoted as AA)	A (a compound having 10 or more and less than 20 is denoted as A)
0.28	CCO[C@@H]1C[C@H]2C(=O)NC3(CCC3)C(=O)N(C)[C@@H](C3CCCC3)C(=O)N(C)[C@H](C(=O)N3C[C@@H](C)O[C@@H](C)C3)CC(=O)N(C)[C@@H](CC(C)C)C(=O)N[C@@H]([C@@H](C)CC)C(=O)N(C)CC(=O)N(C)[C@H]3CCCCCN(C3=O)[C@@H](Cc3ccc(F)cc3)C(=O)N(C)CC(=O)N[C@@H](CCc3ccc(C(F)(F)F)c(Cl)c3)C(=O)N2C1 [PP1153]	B (a compound having 3 or more and less than 10 is denoted as B)	B (a compound having 3 or more and less than 10 is denoted as B)
0.6	CCCO[C@@H]1C[C@H]2C(=O)NC3(CCC3)C(=O)N(C)[C@@H](C3CCCC3)C(=O)N(C)[C@H](C(=O)N3CCOCC3)CC(=O)N(C)[C@@H](CC(C)C)C(=O)N[C@@H]([C@@H](C)CC)C(=O)N(C)CC(=O)N(C)[C@H]3CCCCCN(C3=O)[C@@H](Cc3ccc(C(F)(F)F)cc3)C(=O)N(C)CC(=O)N[C@@H](CCc3cc(F)c(C(F)(F)F)c(F)c3)C(=O)N2C1 [PP1161]	B (a compound having 3 or more and less than 10 is denoted as B)	B (a compound having 3 or more and less than 10 is denoted as B)
